According to PubChem BioAssay AID248 (DTP/NCI, 2004):
Several values for one entry are separate records, joined by “and”; a condition that tells them apart may be missing. Identical values can stand only once. Toxic doses and inconclusive results are not listed. Rule as the data show it: active = T/C of 150% or more; inactive = T/C below 125%.

Tested on: L1210 leukemia ip in BDF1 mice, survival T/C
Experiment: NCI In Vivo Anticancer Drug Screen. Data for tumor model L1210 Leukemia (intraperitoneal) in B6D2F1 (BDF1) mice
Settings: endpoint: mean survival time, higher = longer survival
Summary of the method: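 Read-out is survival time, reported as the treated-group measurement over the vehicle-control measurement.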

[1] = dose: 100.0 mg/kg/injection, schedule: Q01DX009 (ip), vehicle: Klucel (hydroxypropylcellulose) (HPC)
[2] = dose: 200.0 mg/kg/injection, schedule: Q01DX009 (ip), vehicle: Klucel (hydroxypropylcellulose) (HPC)
[3] = dose: 400.0 mg/kg/injection, schedule: Q01DX009 (ip), vehicle: Klucel (hydroxypropylcellulose) (HPC)
[4] = dose: 100.0 mg/kg/injection, schedule: Q01DX001 (ip), vehicle: other
[5] = dose: 100.0 mg/kg/injection, schedule: Q04DX002 (ip), vehicle: Klucel (hydroxypropylcellulose) (HPC)
[6] = dose: 100.0 mg/kg/injection, schedule: Q04DX003 (ip), vehicle: saline
[7] = dose: 200.0 mg/kg/injection, schedule: Q01DX001 (ip), vehicle: other
[8] = dose: 200.0 mg/kg/injection, schedule: Q04DX003 (ip), vehicle: saline
[9] = dose: 400.0 mg/kg/injection, schedule: Q01DX001 (ip), vehicle: other
[10] = dose: 100.0 mg/kg/injection, schedule: Q04DX003 (ip), vehicle: Klucel (hydroxypropylcellulose) (HPC)
[11] = dose: 200.0 mg/kg/injection, schedule: Q04DX003 (ip), vehicle: Klucel (hydroxypropylcellulose) (HPC)
[12] = dose: 400.0 mg/kg/injection, schedule: Q04DX003 (ip), vehicle: Klucel (hydroxypropylcellulose) (HPC)
[13] = dose: 100.0 mg/kg/injection, schedule: Q01DX001 (ip), vehicle: saline
[14] = dose: 50.0 mg/kg/injection, schedule: Q01DX001 (ip), vehicle: carboxymethylcellulose (CMC)
[15] = dose: 100.0 mg/kg/injection, schedule: Q01DX001 (ip), vehicle: carboxymethylcellulose (CMC)
[16] = dose: 200.0 mg/kg/injection, schedule: Q01DX001 (ip), vehicle: carboxymethylcellulose (CMC)
[17] = dose: 400.0 mg/kg/injection, schedule: Q01DX001 (ip), vehicle: carboxymethylcellulose (CMC)
[18] = dose: 200.0 mg/kg/injection, schedule: Q01DX001 (ip), vehicle: saline
[19] = dose: 400.0 mg/kg/injection, schedule: Q01DX001 (ip), vehicle: saline
[20] = dose: 100.0 mg/kg/injection, schedule: Q01DX009 (ip), vehicle: saline
[21] = dose: 200.0 mg/kg/injection, schedule: Q01DX009 (ip), vehicle: saline
[22] = dose: 100.0 mg/kg/injection, schedule: Q04DX003 (ip), vehicle: saline with Tween-80
[23] = dose: 200.0 mg/kg/injection, schedule: Q04DX003 (ip), vehicle: saline with Tween-80
[24] = dose: 400.0 mg/kg/injection, schedule: Q04DX003 (ip), vehicle: saline with Tween-80

Measured: T/C

Cc1ccc(Cl)cc1NC(=O)C(Br)C(Br)c1ccccc1 (stereo not drawn)
inactive: [1] 100 % of control | [2] 96 % of control | [3] 104 % of control

O=C(O)/C=C/c1ccncc1
inactive: [4] 103 % of control | [5] 93 % of control | [6] 103 % of control | [7] 105 % of control | dose: 200.0 mg/kg/injection, schedule: Q04DX002 (ip), vehicle: Klucel (hydroxypropylcellulose) (HPC) 86 % of control | [8] 92 % of control | [9] 97 % of control | dose: 400.0 mg/kg/injection, schedule: Q04DX002 (ip), vehicle: Klucel (hydroxypropylcellulose) (HPC) 93 % of control

Cc1ccc(NC(Nc2ccc(C)c(Cl)c2)C(Cl)(Cl)Cl)cc1Cl
inactive: [1] 96 % of control | [10] 92 % of control | [2] 92 % of control | [11] 118 % of control | [3] 89 % of control | [12] 103 % of control

CC1CC(C)(C)OC(C(C)C)O1 (stereo not drawn)
inactive: dose: 50.0 mg/kg/injection, schedule: Q01DX009 (ip), vehicle: acetone 100 % of control | dose: 75.0 mg/kg/injection, schedule: Q01DX001 (ip), vehicle: acetone 95 % of control | dose: 100.0 mg/kg/injection, schedule: Q01DX009 (ip), vehicle: acetone 97 % of control | dose: 150.0 mg/kg/injection, schedule: Q01DX001 (ip), vehicle: acetone 92 % of control | dose: 200.0 mg/kg/injection, schedule: Q01DX009 (ip), vehicle: acetone 94 % of control | dose: 300.0 mg/kg/injection, schedule: Q01DX001 (ip), vehicle: acetone 87 % of control

CCC/C(=N/NC(=O)C1CCCO1)c1ccccc1 (stereo not drawn)
inactive: dose: 25.0 mg/kg/injection, schedule: Q01DX009 (ip), vehicle: Klucel (hydroxypropylcellulose) (HPC) 104 % of control | dose: 50.0 mg/kg/injection, schedule: Q01DX009 (ip), vehicle: Klucel (hydroxypropylcellulose) (HPC) 102 % of control | [1] 104 % of control and 88 % of control

C=CCN1/C(=C\C=C\c2ccc3cc(C)ccc3[n+]2CC=C)C=Cc2cc(C)ccc21
inactive: dose: 1.17 mg/kg/injection, schedule: Q01DX001 (ip), vehicle: steriod suspending solution 111 % of control

CN1C2CCC1CC(NCCN1CC1)C2 (stereo not drawn)
inactive: [13] 107 % of control

O=c1oc2c([N+](=O)[O-])cc([N+](=O)[O-])cc2c2ccccc12
inactive: [14] 105 % of control | [15] 94 % of control | [16] 100 % of control | [17] 92 % of control

CC1(C)OCC(C2OC3OC(C)(C)OC3C2O)O1 (stereo not drawn)
inactive: [13] 97 % of control | [18] 100 % of control | [19] 100 % of control

NC(=O)Oc1c(Cl)cc(Cl)c(Cl)c1[N+](=O)[O-]
inactive: dose: 25.0 mg/kg/injection, schedule: Q04DX002 (ip), vehicle: Klucel (hydroxypropylcellulose) (HPC) 97 % of control | dose: 50.0 mg/kg/injection, schedule: Q04DX002 (ip), vehicle: Klucel (hydroxypropylcellulose) (HPC) 104 % of control | [5] 97 % of control

O=C(c1cccc([N+](=O)[O-])c1)c1ccc(O)cc1O
inactive: [4] 103 % of control | dose: 100.0 mg/kg/injection, schedule: Q04DX003 (ip), vehicle: other 103 % of control | [7] 95 % of control | dose: 200.0 mg/kg/injection, schedule: Q04DX003 (ip), vehicle: other 100 % of control | [9] 95 % of control | dose: 400.0 mg/kg/injection, schedule: Q04DX003 (ip), vehicle: other 100 % of control

COc1ccc(OC)c(C(=O)CCC(=O)O)c1
inactive: [14] 94 % of control | [15] 110 % of control | [16] 100 % of control | [17] 107 % of control

COc1ccc(/C=C/c2ccc3ccccc3[n+]2C)c(OC)c1OC
inactive: dose: 5.0 mg/kg/injection, schedule: Q01DX009 (oral), vehicle: carboxymethylcellulose (CMC) 104 % of control | dose: 5.0 mg/kg/injection, schedule: Q04DX003 (ip), vehicle: saline with Tween-80 106 % of control | dose: 10.0 mg/kg/injection, schedule: Q01DX009 (oral), vehicle: carboxymethylcellulose (CMC) 98 % of control | dose: 10.0 mg/kg/injection, schedule: Q04DX003 (ip), vehicle: saline with Tween-80 114 % of control | dose: 20.0 mg/kg/injection, schedule: Q01DX009 (oral), vehicle: carboxymethylcellulose (CMC) 106 % of control | dose: 20.0 mg/kg/injection, schedule: Q04DX003 (ip), vehicle: saline with Tween-80 108 % of control | dose: 40.0 mg/kg/injection, schedule: Q01DX009 (oral), vehicle: carboxymethylcellulose (CMC) 109 % of control | dose: 80.0 mg/kg/injection, schedule: Q01DX009 (oral), vehicle: carboxymethylcellulose (CMC) 97 % of control

O=C(O)C(Cc1ccc(O)cc1)NC(=O)C(CSC(c1ccccc1)(c1ccccc1)c1ccccc1)NC(c1ccccc1)(c1ccccc1)c1ccccc1 (stereo not drawn)
inactive: dose: 50.0 mg/kg/injection, schedule: Q01DX009 (ip), vehicle: saline 92 % of control | [20] 95 % of control | [21] 100 % of control | dose: 400.0 mg/kg/injection, schedule: Q01DX009 (ip), vehicle: saline 95 % of control

COc1ccccc1-n1c(O)c(N=Nc2ccccc2C)c(=O)n(-c2ccccc2OC)c1=S
inactive: [10] 96 % of control | [11] 94 % of control | [12] 100 % of control

CCCCCCCN=C(N)CSSCC(N)=NCCCCCCC
inactive: dose: 1.56 mg/kg/injection, schedule: Q04DX002 (ip), vehicle: saline with Tween-80 101 % of control | dose: 3.13 mg/kg/injection, schedule: Q04DX002 (ip), vehicle: saline with Tween-80 96 % of control | dose: 6.25 mg/kg/injection, schedule: Q04DX002 (ip), vehicle: saline with Tween-80 108 % of control and 115 % of control

COC(=O)NC1CC2C=CC1C1C=CC21 (stereo not drawn)
inactive: [22] 92 % of control | [23] 91 % of control | [24] 100 % of control

c1ccc(NCc2ccco2)cc1
inactive: [22] 106 % of control | [23] 98 % of control | [24] 106 % of control

COC(=O)C(CC(C)C)NC(=O)C(Cc1ccc(Oc2ccc([N+](=O)[O-])cc2[N+](=O)[O-])cc1)NC=O (stereo not drawn)
inactive: dose: 25.0 mg/kg/injection, schedule: Q01DX009 (ip), vehicle: water 104 % of control | dose: 50.0 mg/kg/injection, schedule: Q01DX009 (ip), vehicle: water 98 % of control | dose: 100.0 mg/kg/injection, schedule: Q01DX009 (ip), vehicle: water 102 % of control | dose: 200.0 mg/kg/injection, schedule: Q01DX009 (ip), vehicle: water 91 % of control | dose: 400.0 mg/kg/injection, schedule: Q01DX009 (ip), vehicle: water 97 % of control

C=CCNP(=O)(OCC)OCC
inactive: dose: 12.5 mg/kg/injection, schedule: Q01DX009 (ip), vehicle: saline 101 % of control | dose: 12.5 mg/kg/injection, schedule: Q04DX003 (ip), vehicle: saline 104 % of control | dose: 25.0 mg/kg/injection, schedule: Q01DX009 (ip), vehicle: saline 87 % of control | dose: 25.0 mg/kg/injection, schedule: Q04DX003 (ip), vehicle: saline 104 % of control | dose: 50.0 mg/kg/injection, schedule: Q04DX003 (ip), vehicle: saline 104 % of control | [20] 104 % of control | [6] 101 % of control | [21] 109 % of control | [8] 115 % of control

CCSCC1OC2OC(C)(C)OC2C1O (stereo not drawn)
inactive: [13] 97 % of control | [18] 111 % of control | [19] 97 % of control

CCCCC(=O)N/N=C/c1ccc([N+](=O)[O-])cc1
inactive: [13] 95 % of control | [18] 89 % of control | [19] 94 % of control

c1cc2ccc3ccc[n+]4c3c2[n+](c1)CC4
inactive: dose: 75.0 mg/kg/injection, schedule: Q01DX001 (ip), vehicle: saline 103 % of control
